Test results published in PubChem BioAssay (NCI).
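All cell lines were grown in 96-well plates and treated with compound for 48 hours. At the GI50, growth is halved. At the TGI there is no net growth.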

Assays:
Test in all cases: NCI anticancer screen, dose series, 48 h
MCF7 breast = tested on: MCF7 breast
NCI-H460 lung = tested on: NCI-H460 lung
RPMI-8226 leukemia = tested on: RPMI-8226 leukemia
ACHN renal = tested on: ACHN renal
MDA-MB-435 = tested on: MDA-MB-435
SF-295 CNS = tested on: SF-295 CNS
HOP-62 NSCLC = tested on: HOP-62 NSCLC
SW-620 colon = tested on: SW-620 colon
CAKI-1 renal = tested on: CAKI-1 renal
SK-MEL-5 melanoma = tested on: SK-MEL-5 melanoma

Structure (SMILES) | TGI (MCF7 breast) [µM] | TGI (NCI-H460 lung) [µM] | TGI (RPMI-8226 leukemia) [µM] | TGI (ACHN renal) [µM] | TGI (MDA-MB-435) [µM] | TGI (SF-295 CNS) [µM] | TGI (HOP-62 NSCLC) [µM] | TGI (SW-620 colon) [µM] | TGI (CAKI-1 renal) [µM] | TGI (SK-MEL-5 melanoma) [µM] | GI50 (MCF7 breast) [µM] | GI50 (NCI-H460 lung) [µM] | GI50 (RPMI-8226 leukemia) [µM] | GI50 (ACHN renal) [µM] | GI50 (MDA-MB-435) [µM] | GI50 (SF-295 CNS) [µM] | GI50 (HOP-62 NSCLC) [µM] | GI50 (SW-620 colon) [µM] | GI50 (CAKI-1 renal) [µM] | GI50 (SK-MEL-5 melanoma) [µM]
CCOC(=O)c1nc2ccc(C(F)(F)F)cc2nc1Nc1ccc(Cl)c(Cl)c1 | > 100 | > 100 | > 100 | > 100 | > 100 | > 100 | > 100 | > 100 | > 100 | > 100 | – | – | – | – | – | – | – | – | – | –
O=C(N/N=C\c1ccc(N(CCCl)CCCl)cc1[N+](=O)[O-])c1cccnc1 | > 100 | > 100 | > 100 | > 100 | > 100 | > 100 | > 100 | > 100 | > 100 | > 100 | > 100 | > 100 | > 100 | > 100 | > 100 | > 100 | > 100 | > 100 | > 100 | > 100
COC(=O)c1ccc(C)cc1CC1Cc2ccc(C)cc2C1=O (stereo not given) | 19.9 | 31.3 | 36.5 | 80.8 | 4.03 | 96.7 | > 100 | > 100 | > 100 | 19.6 | – | – | – | – | – | – | – | – | – | –
Cc1ccc(-c2nc(N/N=C/c3ccc(O)cc3)c3ccccc3n2)cc1 | 26.2 | 50.1 | > 100 | 35.7 | 48.2 | 89.5 | > 100 | > 100 | 31.8 | 15.4 | – | – | – | – | – | – | – | – | – | –
Cc1n[nH]c(=O)n1/N=C\c1ccccc1 | > 100 | > 100 | > 100 | > 100 | > 100 | > 100 | > 100 | > 100 | > 100 | > 100 | – | – | – | – | – | – | – | – | – | –
O=C(/C=C/c1cccc(Oc2ccccc2)c1)NCc1ccc(C(=O)NCCc2ccccc2)cc1 | > 100 | > 100 | > 100 | > 100 | > 100 | > 100 | > 100 | > 100 | > 100 | > 100 | – | – | – | – | – | – | – | – | – | –
CC(C)(C)OC(=O)CN1CCNCCN(CC(=O)OC(C)(C)C)CCNCC1 | > 100 | > 100 | > 100 | > 100 | > 100 | > 100 | > 100 | > 100 | > 100 | > 100 | – | – | – | – | – | – | – | – | – | –
COc1ccc(N=NC(=O)NC(CC(C)C)C(N)=O)cc1 (stereo not given) | > 31.6 | > 31.6 | > 100 | > 31.6 | > 100 | > 100 | > 100 | > 100 | > 31.6 | > 100 | – | – | – | – | – | – | – | – | – | –
COc1ccc2c3c([nH]c2c1)CCN(CCCC(=O)c1ccc(F)cc1)C3 | 31.6 | 36.4 | 37.3 | 30.8 | 31 | 29.4 | 27 | 32.8 | 31.8 | 26 | – | – | – | – | – | – | – | – | – | –
Cc1oc2c(c1C)S(=O)(=O)C(C#N)=C(N(C)C)N2 | > 100 | > 100 | > 100 | > 100 | > 100 | > 100 | > 100 | > 100 | > 100 | > 100 | – | – | – | – | – | – | – | – | – | –
Cn1ncc2c(Cl)ncnc21 | > 100 | > 100 | > 100 | > 100 | > 100 | > 100 | > 100 | > 100 | > 100 | > 100 | – | – | – | – | – | – | – | – | – | –
C[C@@H]1C(=O)C[C@H]2C(C)(C)CCC[C@]2(C)[C@@]1(O)CCc1ccoc1 | > 100 | > 100 | > 100 | > 100 | > 100 | > 100 | > 100 | > 100 | > 100 | > 100 | – | – | – | – | – | – | – | – | – | –
Cc1csc2c1-n1cccc1C2=O | > 100 | > 100 | > 100 | > 100 | > 100 | > 100 | > 100 | > 100 | > 100 | > 100 | – | – | – | – | – | – | – | – | – | –
Cc1sc2c(c1C)/C(=N\O)c1cccn1-2 | > 100 | > 100 | > 100 | > 100 | > 100 | > 100 | 63.3 | > 100 | > 100 | > 100 | – | – | – | – | – | – | – | – | – | –
O=C1CC[C@@]2(O)[C@H]3Cc4ccc(-c5ccccc5)c5c4[C@@]2(CCN3CC2CC2)[C@H]1O5 | 33.5 | 35.5 | 47.8 | 42.4 | 26.6 | 33.6 | 40.6 | 25 | 36.7 | 28.6 | – | – | – | – | – | – | – | – | – | –
